How the values were obtained:
HCT116 spheroids = experiment: 3D spheroid viability; assay type: cell-based, human; conditions: 2.5, 5 and 10 µM single dose, 7 days
Method: (§1) U-2 OS cells were seeded at 5000 cells per well and HCT116 at 1500 cells per well, in 96-well black ULA plates (Ultra Low Adherence, Corning). After centrifugation at 200 g for 10 min, spheroids were incubated at 37 °C for 3 days in order to reach 400 µm in diameter. Compounds were then added at a single dose (2.5, 5, or 10 μM) and cell viability was measured after 7 days using the CellTiter-Glo® 3D Cell Viability Assay (Promega) following the manufacturer's protocol. Luminescence was measured using an EnVision® plate reader (Perkin Elmer).

U-2 OS spheroids = experiment: 3D spheroid viability; assay type: cell-based, human; conditions: 2.5, 5 and 10 µM single dose, 7 days
Method: as §1

[1] = system: U-2 OS, HCT116, MDA-MB231, SH-SY5Y and RPE-1 cell lines; experiment: Cell viability primary screen at 25 μM; assay type: cell-based, human; conditions: 48 h
Method: HCT116 cells were cultured in McCoy’s medium. SH-SY5Y, MDA-MB231 and U-2 OS cells were cultured in Dulbecco's modified Eagle's medium (DMEM) and hTERT RPE-1 cells in DMEM:F12 medium. All media were supplemented with 10% foetal calf serum and cells were cultured at 37 °C in a 5% CO2 humidified atmosphere.
Cell viability was then assessed using the CellTiter96 AQueous cell proliferation assay from Promega according to the manufacturer’s instructions. Each experiment was done in triplicate and EC50 were determined from the dose-response curves according to the signal given by the control (0.1% DMSO) set at 100% viability using Prism GraphPad software.

LRRK2 I2020T = target: T1, LRRK2 I2020T (Homo sapiens, UniProt Q5S007, I2020T); experiment: SelectScreen Adapta; assay type: biochemical; conditions: ATP Km, read-out: Percentage of inhibition
T1 construct: purchased Life Technologies (SelectScreen Whole Panel)
T1 sequence (Q5S007 970-2527 I2020T limits assumed): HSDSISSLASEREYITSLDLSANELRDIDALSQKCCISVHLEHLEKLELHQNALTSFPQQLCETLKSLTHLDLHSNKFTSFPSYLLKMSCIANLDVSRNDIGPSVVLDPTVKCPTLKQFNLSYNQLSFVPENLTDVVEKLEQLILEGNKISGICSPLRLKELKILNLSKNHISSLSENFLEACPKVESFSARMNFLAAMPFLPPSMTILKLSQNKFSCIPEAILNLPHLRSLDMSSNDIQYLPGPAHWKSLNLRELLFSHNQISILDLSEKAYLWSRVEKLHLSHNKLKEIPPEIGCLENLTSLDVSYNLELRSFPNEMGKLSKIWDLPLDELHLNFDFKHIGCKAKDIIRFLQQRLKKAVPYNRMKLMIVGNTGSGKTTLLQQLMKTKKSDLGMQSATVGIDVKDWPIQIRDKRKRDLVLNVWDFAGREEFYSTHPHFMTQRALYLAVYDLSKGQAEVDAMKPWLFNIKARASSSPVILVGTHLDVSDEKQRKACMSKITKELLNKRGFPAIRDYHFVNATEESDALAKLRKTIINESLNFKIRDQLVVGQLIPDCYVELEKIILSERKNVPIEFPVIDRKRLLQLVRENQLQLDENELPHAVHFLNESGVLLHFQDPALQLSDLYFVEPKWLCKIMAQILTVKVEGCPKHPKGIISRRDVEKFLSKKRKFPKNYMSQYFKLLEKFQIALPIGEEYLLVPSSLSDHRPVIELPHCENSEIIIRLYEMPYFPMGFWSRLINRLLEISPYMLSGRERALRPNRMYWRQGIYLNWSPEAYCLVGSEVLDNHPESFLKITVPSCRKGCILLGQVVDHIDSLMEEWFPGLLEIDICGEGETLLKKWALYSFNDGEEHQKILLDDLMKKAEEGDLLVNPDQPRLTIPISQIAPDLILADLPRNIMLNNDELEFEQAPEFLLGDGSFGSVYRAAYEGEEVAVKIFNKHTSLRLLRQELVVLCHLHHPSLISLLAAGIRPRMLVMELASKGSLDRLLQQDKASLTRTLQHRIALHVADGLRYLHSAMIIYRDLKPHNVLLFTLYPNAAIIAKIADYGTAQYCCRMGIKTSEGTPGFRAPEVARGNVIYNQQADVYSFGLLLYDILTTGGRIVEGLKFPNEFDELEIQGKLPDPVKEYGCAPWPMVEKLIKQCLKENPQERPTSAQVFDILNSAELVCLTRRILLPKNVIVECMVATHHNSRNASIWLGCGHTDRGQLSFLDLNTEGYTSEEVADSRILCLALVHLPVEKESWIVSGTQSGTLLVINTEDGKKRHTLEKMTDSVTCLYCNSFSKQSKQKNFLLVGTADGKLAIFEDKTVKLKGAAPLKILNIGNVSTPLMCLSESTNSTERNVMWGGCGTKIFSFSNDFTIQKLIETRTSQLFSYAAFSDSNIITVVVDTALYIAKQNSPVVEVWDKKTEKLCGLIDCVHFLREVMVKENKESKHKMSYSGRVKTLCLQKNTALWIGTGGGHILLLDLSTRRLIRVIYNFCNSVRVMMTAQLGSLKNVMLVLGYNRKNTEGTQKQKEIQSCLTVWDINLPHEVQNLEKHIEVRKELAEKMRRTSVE
Method: (§2) We further evaluated the selectivity profile of compound 55 on a larger panel of kinases (SelectScreen Whole Panel, Life Technologies). The inhibition profile of 55, evaluated at 1 μM, is depicted on a dendrogram on Figure 3 where kinases inhibited by a minimum of 80% are shown. A full list of the kinases tested is shown on Table S1 in supplementary information.

CDK4/cyclin D3 = target: T2, CDK4/cyclin D3 (Homo sapiens, UniProt P11802); experiment: SelectScreen Adapta; assay type: biochemical; conditions: ATP 10 µM, read-out: Percentage of inhibition
T2 construct: purchased Life Technologies
Method: as §2

[2] = target: T3, PIK3CD/PIK3R1 (p110 delta/p85 alpha) (Homo sapiens, UniProt O00329); experiment: SelectScreen Adapta; assay type: biochemical; conditions: ATP Km, read-out: Percentage of inhibition
T3 construct: purchased Life Technologies (SelectScreen Whole Panel service)
Method: as §2

[3] = target: T4, PIK3CA E545K/PIK3R1 (p110 alpha E545K/p85 alpha) (Homo sapiens, UniProt P42336, E545K); experiment: SelectScreen Adapta; assay type: biochemical; conditions: ATP Km, read-out: Percentage of inhibition
T4 construct: purchased Life Technologies (SelectScreen Whole Panel)
Method: as §2

PI4K2A (PI4K2 alpha) = target: T5, PI4K2A (PI4K2 alpha) (Homo sapiens, UniProt Q9BTU6); experiment: SelectScreen Adapta; assay type: biochemical; conditions: ATP Km, read-out: Percentage of inhibition
T5 construct: purchased Life Technologies (SelectScreen Whole Panel)
T5 sequence (Q9BTU6 whole entry): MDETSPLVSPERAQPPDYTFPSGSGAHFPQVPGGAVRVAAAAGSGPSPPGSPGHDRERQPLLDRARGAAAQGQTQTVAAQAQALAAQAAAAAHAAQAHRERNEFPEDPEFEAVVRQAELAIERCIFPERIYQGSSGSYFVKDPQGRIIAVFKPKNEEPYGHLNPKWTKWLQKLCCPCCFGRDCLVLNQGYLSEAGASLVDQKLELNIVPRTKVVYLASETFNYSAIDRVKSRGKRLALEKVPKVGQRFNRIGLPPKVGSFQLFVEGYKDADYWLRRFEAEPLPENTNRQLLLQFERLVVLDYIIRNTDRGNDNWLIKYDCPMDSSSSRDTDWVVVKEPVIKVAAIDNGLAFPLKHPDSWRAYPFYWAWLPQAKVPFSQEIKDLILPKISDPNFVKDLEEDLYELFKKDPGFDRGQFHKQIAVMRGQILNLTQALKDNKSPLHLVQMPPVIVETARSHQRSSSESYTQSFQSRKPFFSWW
Method: as §2

GSG2 (Haspin) = target: T6, GSG2 (Haspin) (Homo sapiens, UniProt Q8TF76); experiment: SelectScreen Adapta; assay type: biochemical; conditions: ATP Km, read-out: Percentage of inhibition
T6 construct: purchased Life Technologies (SelectScreen Whole Panel)
Method: as §2

SPHK2 = target: T7, SPHK2 (Homo sapiens, UniProt Q9NRA0); experiment: SelectScreen Adapta; assay type: biochemical; conditions: ATP 10 µM, read-out: Percentage of inhibition
T7 construct: purchased Life Technologies (SelectScreen Whole Panel)
Method: as §2

PIK3C2A (PI3K-C2 alpha) = PIK3C2A (PI3K-C2 alpha) (Homo sapiens, UniProt O00443); experiment: SelectScreen Adapta; assay type: biochemical; conditions: ATP Km, read-out: Percentage of inhibition
Method: as §2

[4] = target: PIK3CA/PIK3R1 (p110 alpha/p85 alpha) (Homo sapiens, UniProt P42336); experiment: SelectScreen Adapta; assay type: biochemical; conditions: ATP Km, read-out: Percentage of inhibition
Method: as §2

CDK4/cyclin D1 = target: T8, CDK4/cyclin D1 (Homo sapiens, UniProt P11802); experiment: SelectScreen Adapta; assay type: biochemical; conditions: ATP 10 µM, read-out: Percentage of inhibition
T8 construct: purchased Life Technologies (SelectScreen Whole Panel service)
Method: as §2

PIP4K2A = PIP4K2A (Homo sapiens, UniProt P48426); experiment: SelectScreen Adapta; assay type: biochemical; conditions: ATP 10 µM, read-out: Percentage of inhibition
PIP4K2A, sequence (P48426 whole entry): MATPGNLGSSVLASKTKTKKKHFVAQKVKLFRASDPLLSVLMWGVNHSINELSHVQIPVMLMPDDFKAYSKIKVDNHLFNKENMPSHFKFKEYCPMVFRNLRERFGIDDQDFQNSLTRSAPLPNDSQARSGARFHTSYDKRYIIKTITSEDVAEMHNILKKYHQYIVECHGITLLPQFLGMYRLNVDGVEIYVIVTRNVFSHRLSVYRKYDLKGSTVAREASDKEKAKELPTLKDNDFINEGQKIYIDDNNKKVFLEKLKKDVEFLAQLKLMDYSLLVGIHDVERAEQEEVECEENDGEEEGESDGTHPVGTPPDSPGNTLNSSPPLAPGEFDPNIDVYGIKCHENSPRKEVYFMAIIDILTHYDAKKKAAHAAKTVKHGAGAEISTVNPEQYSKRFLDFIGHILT
Method: as §2

PIK3CG (p110 gamma) = PIK3CG (p110 gamma) (Homo sapiens, UniProt P48736); experiment: SelectScreen Adapta; assay type: biochemical; conditions: ATP Km, read-out: Percentage of inhibition
Method: as §2

CHUK (IKK alpha) = target: T9, CHUK (IKK alpha) (Homo sapiens, UniProt O15111); experiment: SelectScreen Adapta; assay type: biochemical; conditions: ATP Km, read-out: Percentage of inhibition
T9 construct: purchased Life Technologies
T9 sequence (O15111 whole entry): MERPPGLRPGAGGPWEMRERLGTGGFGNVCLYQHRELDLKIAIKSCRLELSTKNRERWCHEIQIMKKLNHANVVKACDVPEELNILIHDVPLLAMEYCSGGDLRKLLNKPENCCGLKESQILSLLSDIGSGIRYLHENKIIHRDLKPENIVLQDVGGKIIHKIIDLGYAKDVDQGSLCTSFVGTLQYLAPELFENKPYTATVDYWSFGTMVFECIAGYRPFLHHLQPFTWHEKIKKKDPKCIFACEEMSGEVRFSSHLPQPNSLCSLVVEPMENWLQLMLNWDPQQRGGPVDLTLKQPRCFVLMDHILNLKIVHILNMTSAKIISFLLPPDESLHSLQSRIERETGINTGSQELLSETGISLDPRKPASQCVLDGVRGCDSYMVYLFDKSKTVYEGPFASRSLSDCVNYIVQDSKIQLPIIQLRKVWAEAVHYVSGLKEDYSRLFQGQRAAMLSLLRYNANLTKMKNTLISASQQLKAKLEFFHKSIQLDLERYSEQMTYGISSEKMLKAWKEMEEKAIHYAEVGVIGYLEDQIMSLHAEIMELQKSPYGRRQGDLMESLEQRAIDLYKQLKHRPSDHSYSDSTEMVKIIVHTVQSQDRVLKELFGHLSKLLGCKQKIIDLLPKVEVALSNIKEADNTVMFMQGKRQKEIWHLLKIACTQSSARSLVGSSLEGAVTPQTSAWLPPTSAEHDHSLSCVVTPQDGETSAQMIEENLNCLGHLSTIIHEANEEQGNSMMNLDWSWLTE
Method: as §2

IRAK1 = target: T10, IRAK1 (Homo sapiens, UniProt P51617); experiment: SelectScreen Adapta; assay type: biochemical; conditions: ATP Km, read-out: Percentage of inhibition
T10 construct: purchased Life Technologies (SelectScreen service)
Method: as §2

PIP5K1C = target: T11, PIP5K1C (Homo sapiens, UniProt O60331); experiment: SelectScreen Adapta; assay type: biochemical; conditions: ATP 10 µM, read-out: Percentage of inhibition
T11 construct: purchased Life Technologies (SelectScreen Whole Panel service)
Method: as §2

PIK3C2B = PIK3C2B (Homo sapiens, UniProt O00750); experiment: SelectScreen Adapta; assay type: biochemical; conditions: ATP 10 µM, read-out: Percentage of inhibition
Method: as §2

[5] = target: T12, PIK3CB/PIK3R1 (p110 beta/p85 alpha) (Homo sapiens, UniProt P42338); experiment: SelectScreen Adapta; assay type: biochemical; conditions: ATP Km, read-out: Percentage of inhibition
T12 construct: purchased Life Technologies (SelectScreen)
T12 sequence (P42338 whole entry): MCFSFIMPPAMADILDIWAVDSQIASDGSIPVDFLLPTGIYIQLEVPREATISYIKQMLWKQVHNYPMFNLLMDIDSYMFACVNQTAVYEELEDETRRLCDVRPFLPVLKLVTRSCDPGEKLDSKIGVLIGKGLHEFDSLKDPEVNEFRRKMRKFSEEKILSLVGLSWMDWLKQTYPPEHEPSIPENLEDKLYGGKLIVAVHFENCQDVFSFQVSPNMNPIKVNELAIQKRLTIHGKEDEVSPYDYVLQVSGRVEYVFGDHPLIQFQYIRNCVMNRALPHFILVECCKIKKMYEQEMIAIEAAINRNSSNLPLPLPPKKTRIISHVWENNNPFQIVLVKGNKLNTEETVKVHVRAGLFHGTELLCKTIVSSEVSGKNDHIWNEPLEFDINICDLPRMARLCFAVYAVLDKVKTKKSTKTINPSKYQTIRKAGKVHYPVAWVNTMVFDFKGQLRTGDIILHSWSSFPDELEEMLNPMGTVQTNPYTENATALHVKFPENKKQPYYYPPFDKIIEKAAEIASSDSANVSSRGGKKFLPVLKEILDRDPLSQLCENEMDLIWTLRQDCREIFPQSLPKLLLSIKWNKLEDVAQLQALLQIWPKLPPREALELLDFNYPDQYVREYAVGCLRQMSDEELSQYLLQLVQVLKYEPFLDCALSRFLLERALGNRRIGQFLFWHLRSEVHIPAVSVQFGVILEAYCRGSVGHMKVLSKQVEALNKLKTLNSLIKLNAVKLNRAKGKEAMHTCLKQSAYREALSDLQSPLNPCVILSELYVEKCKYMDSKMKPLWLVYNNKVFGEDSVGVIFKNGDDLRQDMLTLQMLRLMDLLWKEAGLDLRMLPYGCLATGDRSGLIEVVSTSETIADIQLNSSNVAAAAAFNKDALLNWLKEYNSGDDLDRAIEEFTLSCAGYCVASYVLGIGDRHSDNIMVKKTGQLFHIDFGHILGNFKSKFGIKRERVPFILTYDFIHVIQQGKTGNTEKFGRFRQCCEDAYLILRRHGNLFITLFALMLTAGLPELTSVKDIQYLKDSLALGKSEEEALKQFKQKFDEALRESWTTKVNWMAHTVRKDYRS
T12 sequence (P27986 whole entry partner): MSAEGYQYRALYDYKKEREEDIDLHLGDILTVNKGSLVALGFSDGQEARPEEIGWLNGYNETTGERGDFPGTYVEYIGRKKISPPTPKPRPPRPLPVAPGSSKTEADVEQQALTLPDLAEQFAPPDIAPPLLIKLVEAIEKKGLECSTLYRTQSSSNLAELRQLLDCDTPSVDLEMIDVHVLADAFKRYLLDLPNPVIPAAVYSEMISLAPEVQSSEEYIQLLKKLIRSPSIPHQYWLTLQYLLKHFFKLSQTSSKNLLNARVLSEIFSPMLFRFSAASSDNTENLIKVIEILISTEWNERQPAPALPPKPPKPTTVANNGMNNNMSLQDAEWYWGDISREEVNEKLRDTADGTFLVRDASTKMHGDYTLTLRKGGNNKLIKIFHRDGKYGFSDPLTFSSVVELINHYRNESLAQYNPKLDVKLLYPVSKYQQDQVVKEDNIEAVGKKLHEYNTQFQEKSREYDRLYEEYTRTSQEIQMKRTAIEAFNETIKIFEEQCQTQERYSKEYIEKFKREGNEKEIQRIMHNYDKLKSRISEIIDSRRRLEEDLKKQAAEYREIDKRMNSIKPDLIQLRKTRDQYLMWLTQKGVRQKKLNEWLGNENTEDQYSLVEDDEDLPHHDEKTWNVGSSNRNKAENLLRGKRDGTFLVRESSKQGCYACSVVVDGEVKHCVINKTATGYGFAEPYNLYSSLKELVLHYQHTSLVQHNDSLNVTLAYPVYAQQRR
Method: as §2

CDK9/cyclin T1 = CDK9/cyclin T1 (Homo sapiens, UniProt P50750); experiment: SelectScreen Adapta; assay type: biochemical; conditions: ATP Km, read-out: Percentage of inhibition
Method: as §2

PIP5K1A = target: T13, PIP5K1A (Homo sapiens, UniProt Q99755); experiment: SelectScreen Adapta; assay type: biochemical; conditions: ATP 10 µM, read-out: Percentage of inhibition
T13 construct: purchased Life Technologies (SelectScreen service)
Method: as §2

LRRK2 G2019S FL = target: T14, LRRK2 G2019S FL (Homo sapiens, UniProt Q5S007, G2019S); experiment: SelectScreen Adapta; assay type: biochemical; conditions: ATP Km, read-out: Percentage of inhibition
T14 construct: LRRK2 G2019S FL; purchased Life Technologies (SelectScreen Whole Panel)
Method: as §2

LRRK2 R1441C = target: T15, LRRK2 R1441C (Homo sapiens, UniProt Q5S007, R1441C); experiment: SelectScreen Adapta; assay type: biochemical; conditions: ATP Km, read-out: Percentage of inhibition
T15 construct: purchased Life Technologies
T15 sequence (Q5S007 970-2527 R1441C limits assumed): as the sequence (Q5S007 970-2527 I2020T limits assumed) above, with R472C, T1051I counted along it
Method: as §2

HsCdk9/Cyc E = HsCdk9/Cyc E (Homo sapiens, UniProt P50750); experiment: ADP-Glo kinase assay; assay type: biochemical, Homo sapiens (Hs); conditions: mean n = 2, % of maximum activity of DMSO control, read-out: % Residual activity at 1 μM CDK9
Method: Kinase activities were determined using the ADP-Glo methodology (ADP-Glo Kinase Assay; Promega) according to the assay described by Nguyen et al.[32] except for MmCLK1. The later was assayed in the following buffer: 10 mM MgCl2, 1 mM EGTA, 1 mM DTT, 25 mM Tris-HCl pH 7.5, 50 µg/ml heparin, 0.15 mg/ml BSA, with 0.027 µg/µl of the following peptide: GRSRSRSRSRSR as substrate.

## COc1ccc2[nH]c3c(=O)[nH]c4ccc(O)cc4c3c2c1 [Compound 55, 2-Hydroxy-10-methoxy-5,7-dihydro-6H-indolo[2,3-c]quinolin-6-one]
HCT116 spheroids
  HCT116 spheroid cell viability: marked dose-dependent effect
U-2 OS spheroids
  U-2 OS spheroid cell viability: marked dose-dependent effect
[1]
  Reduction of cell viability compared to the DMSO control: ≥ 75%
LRRK2 I2020T
  inhibition at 1 µM: 100%
CDK4/cyclin D3
  inhibition at 1 µM: 5%
[2]
  inhibition at 1 µM: 44%
[3]
  inhibition at 1 µM: 51%
PI4K2A (PI4K2 alpha)
  inhibition at 1 µM: 1%
GSG2 (Haspin)
  inhibition at 1 µM: 100%
SPHK2
  inhibition at 1 µM: -1%
PIK3C2A (PI3K-C2 alpha)
  inhibition at 1 µM: 14%
[4]
  inhibition at 1 µM: 62%
CDK4/cyclin D1
  inhibition at 1 µM: 12%
PIP4K2A
  inhibition at 1 µM: 13%
PIK3CG (p110 gamma)
  inhibition at 1 µM: 19%
CHUK (IKK alpha)
  inhibition at 1 µM: 38%
IRAK1
  inhibition at 1 µM: 91%
PIP5K1C
  inhibition at 1 µM: 49%
PIK3C2B
  inhibition at 1 µM: 67%
[5]
  inhibition at 1 µM: 9%
CDK9/cyclin T1
  inhibition at 1 µM: 70%
PIP5K1A
  inhibition at 1 µM: 23%
LRRK2 G2019S FL
  inhibition at 1 µM: 98%
LRRK2 R1441C
  inhibition at 1 µM: 93%
HsCdk9/Cyc E
  remaining activity at 1 µM: 17%
